Test results as given in patent US12378224B2 (Dong-A Socio Holdings Co., Ltd., priority 2016, dated 2025).

Legend:
human MER (528-end) = human MER (528-end) (Homo sapiens (Human), UniProt Q12866); test: HTRF Kinase Activity Biochemical Assay (KinEASE-TK); conditions: 10 uM ATP
Method in brief: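 Activity read-out is the HTRF ratio (665 nm over 620 nm emission, ×10,000; excitation 340 nm) after 1 h detection with 0.375 nM Eu3+-cryptate anti-TK antibody plus 0.062 uM SA-XL665. Preceding kinase step: human MER (528-end), biotinylated TK substrate, 1 h, room temperature.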

[1] = molecular target: BCR fusion to kinase domain of MerTK (Ba/F3-MerTK) (Homo sapiens, UniProt Q12866); test: In Cell TAM Kinase Assay Using BaF3 Cellular System; assay type: cell-based, murine; conditions: Ba/F3 BCR-kinase fusion proliferation, 72 hours, Cell Titer Glo; kinase not given; read-out: IC50
BCR fusion to kinase domain of MerTK (Ba/F3-MerTK), sequence (Q12866 21-999 limits assumed, stated change not applied): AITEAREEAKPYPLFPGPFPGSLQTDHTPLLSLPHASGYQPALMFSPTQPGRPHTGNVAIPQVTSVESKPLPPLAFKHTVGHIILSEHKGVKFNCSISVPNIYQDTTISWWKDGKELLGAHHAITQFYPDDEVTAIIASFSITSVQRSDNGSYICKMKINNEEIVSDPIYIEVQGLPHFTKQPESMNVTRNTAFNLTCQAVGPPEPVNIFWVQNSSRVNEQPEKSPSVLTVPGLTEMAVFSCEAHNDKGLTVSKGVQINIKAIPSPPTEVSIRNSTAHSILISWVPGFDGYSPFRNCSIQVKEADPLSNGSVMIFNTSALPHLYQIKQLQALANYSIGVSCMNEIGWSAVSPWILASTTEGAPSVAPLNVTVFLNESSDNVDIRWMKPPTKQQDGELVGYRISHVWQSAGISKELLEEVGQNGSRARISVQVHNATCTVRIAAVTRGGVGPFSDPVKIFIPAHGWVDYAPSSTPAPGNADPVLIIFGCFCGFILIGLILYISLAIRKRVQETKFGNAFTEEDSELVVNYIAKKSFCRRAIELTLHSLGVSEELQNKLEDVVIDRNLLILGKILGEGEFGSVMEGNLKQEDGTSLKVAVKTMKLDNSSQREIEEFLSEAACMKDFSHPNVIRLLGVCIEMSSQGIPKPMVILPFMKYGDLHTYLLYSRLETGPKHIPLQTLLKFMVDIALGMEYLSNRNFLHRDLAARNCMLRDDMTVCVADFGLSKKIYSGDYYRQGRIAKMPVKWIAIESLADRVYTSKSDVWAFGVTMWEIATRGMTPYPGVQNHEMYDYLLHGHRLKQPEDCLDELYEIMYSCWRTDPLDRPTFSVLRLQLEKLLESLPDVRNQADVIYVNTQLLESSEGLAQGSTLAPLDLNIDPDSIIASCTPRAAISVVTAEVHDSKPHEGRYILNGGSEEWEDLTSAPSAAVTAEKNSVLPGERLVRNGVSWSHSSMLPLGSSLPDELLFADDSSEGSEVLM
Description: Three Ba/F3 cell lines (a murine IL-3 dependent pro-B cell line) expressing BCR fusions to the kinase domains of either MerTK (Ba/F3-MerTK), Axl (Ba/F3-Axl), or Tyro3 (Ba/F3-Tyro3) were purchased from Advanced Cellular Dynamics. The IL-3 independence of all 3 cell lines was confirmed. After thawing, the 3 Ba/F3 cell lines were split and maintained in cell culture media, which consisted of RPMI-1640-HEPES (Thermo-Cat #22400-089) with 1× Glutamax (Thermo-Cat #35050-061) and 10% FBS (Sigma-Cat #F4135 (500 ml), at a cell density range of 0.05×10^6−1×10^6 cells/mL 4 days before used in the routine screen. Compound plates were prepared using Nunc™ white 384-well optical bottom plates (ThermoFisher, USA) with compound in 25 nL dimethyl sulfoxide in each well. For routine assays, each of the 3 Ba/F3 cell lines was seeded at 1,000 cells per well with 25 µL of cell culture media directly into 384-well compound plates and incubated for 72 hours. Cell proliferation was then measured by adding 25 μL of Cell Titer Glo 2.0 (Promega, USA). After incubating with Cell Titer Glo at room temperature for 30 mins, the luminescence intensity, which quantifies the cell viability, was measured using an Envision™ plate reader (PerkinElmer, USA). […] In the presence of IL-3, the proliferation of the Ba/F3-Tyro3 cells is no longer dependent on the Tyro3 kinase activity.

[2] = molecular target: human c-MER catalytic domain (Homo sapiens (Human), UniProt Q12866); test: TR-FRET Kinase Activity Biochemical Assay (LanthaScreen); conditions: 10 uM ATP, 1 hour, kinase not given
human c-MER catalytic domain, sequence (Q12866 587-858): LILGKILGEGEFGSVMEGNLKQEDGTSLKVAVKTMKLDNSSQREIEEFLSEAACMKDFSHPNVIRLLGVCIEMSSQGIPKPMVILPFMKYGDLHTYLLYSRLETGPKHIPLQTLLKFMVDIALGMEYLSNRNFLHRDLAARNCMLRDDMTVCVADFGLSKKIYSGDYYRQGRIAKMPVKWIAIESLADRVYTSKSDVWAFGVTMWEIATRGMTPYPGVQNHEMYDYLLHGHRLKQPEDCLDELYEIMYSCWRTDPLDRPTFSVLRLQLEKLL
Method in brief: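 Activity was quantified as the ratio of 495 nm to 520 nm emission (excitation 340 nm) in a LanthaScreen TR-FRET format. The enzyme was the human c-MER catalytic domain, and the substrate was fluorescein-poly-GT. Detection used 2 nM Tb anti-phosphotyrosine antibody for 30 min after termination with 10 mM EDTA.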

human MER (528-end), sequence (Q12866 528-999 limits assumed): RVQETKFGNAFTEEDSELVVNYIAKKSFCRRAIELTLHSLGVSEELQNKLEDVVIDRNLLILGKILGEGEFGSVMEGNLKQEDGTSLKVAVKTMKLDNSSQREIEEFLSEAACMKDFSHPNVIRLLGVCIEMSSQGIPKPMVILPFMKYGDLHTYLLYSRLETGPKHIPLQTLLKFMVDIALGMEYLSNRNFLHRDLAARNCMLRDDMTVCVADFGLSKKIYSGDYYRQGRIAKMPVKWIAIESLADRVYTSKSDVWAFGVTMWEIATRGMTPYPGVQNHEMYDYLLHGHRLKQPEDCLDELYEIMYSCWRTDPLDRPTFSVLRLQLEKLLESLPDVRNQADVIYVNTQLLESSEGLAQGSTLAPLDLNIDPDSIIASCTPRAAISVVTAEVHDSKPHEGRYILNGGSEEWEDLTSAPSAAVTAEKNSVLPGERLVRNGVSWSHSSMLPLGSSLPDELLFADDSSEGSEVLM

Row | Structure (SMILES) | IC50 (human MER (528-end)) [nM] | IC50 [1] [nM] | IC50 [2] [nM]
1 | CN(c1ccc2cc(C(=O)N3CC[C@@H](NC(=O)c4cc(-c5cnn(C)c5)cnc4N)C3)ccc2c1)C1CCN(CCO)CC1 [Example 820, (R)-2-amino-N-(1-(6-((1-(2-hydroxyethyl)piperidin-4-yl)(methyl)amino)-2-naphthoyl)pyrrolidin-3-yl)-5-(1-methyl-1H-pyrazol-4-yl)nicotinamide] | 10 to 100 | 100 to 500 | 
2 | Nc1ncc(-c2ccc(C(=O)NC3CCOCC3)cc2)cc1C(=O)N[C@@H]1CCN(C(=O)c2ccc(-c3ccccc3Cl)cc2)C1 [Example 593, (R)-2-amino-N-(1-(2′-chloro-[1,1′-biphenyl]-4-carbonyl)pyrrolidin-3-yl)-5-(4-((tetrahydro-2H-pyran-4-yl)carbamoyl)phenyl)nicotinamide] | 10 to 100 | > 1000 | 
3 | Cn1cc(-c2cnc(N)c(C(=O)N[C@@H]3CCN(C(=O)c4ccc(-c5cccc(-c6nnn[nH]6)c5)cc4)C3)c2)cn1 [Example 713, (R)—N-(1-(3′-(1H-tetrazol-5-yl)-[1,1′-biphenyl]-4-carbonyl)pyrrolidin-3-yl)-2-amino-5-(1-methyl-1H-pyrazol-4-yl)nicotinamide] | 100 to 1000 | > 1000 | 
4 | Cn1cc(-c2cnc(N)c(C(=O)N[C@@H]3CCN(C(=O)OC4CCCC(c5ccccc5)C4)C3)c2)cn1 (stereo partly drawn) [Example 129, 3-phenylcyclohexyl (3R)-3-(2-amino-5-(1-methyl-1H-pyrazol-4-yl)nicotinamido)pyrrolidine-1-carboxylate] | > 1000 | 100 to 500 | 
5 | Nc1ncc(-c2ccccc2O)cc1C(=O)N[C@@H]1CCN(C(=O)c2ccc(-c3ccc(F)cc3Cl)cc2)C1 [Example 778, (R)-2-amino-N-(1-(2′-chloro-4′-fluoro-[1,1′-biphenyl]-4-carbonyl)pyrrolidin-3-yl)-5-(2-hydroxyphenyl)nicotinamide] | 100 to 1000 | > 1000 | 
6 | CN(c1ccc(-c2ccc(C(=O)N3CC[C@@H](NC(=O)c4cc(-c5cnn(C)c5)cnc4N)C3)cc2)cc1)c1ccc([N+](=O)[O-])cc1Cl [Example 806, (R)-2-amino-N-(1-(4′-((2-chloro-4-nitrophenyl)(methyl)amino)-[1,1′-biphenyl]-4-carbonyl)pyrrolidin-3-yl)-5-(1-methyl-1H-pyrazol-4-yl)nicotinamide] | > 1000 | > 1000 | 
7 | CN1C(C)(C)CC(Nc2ccc3cc(C(=O)N4CC[C@@H](NC(=O)c5cc(-c6cnn(C)c6)cnc5N)C4)ccc3c2)CC1(C)C [Example 722, (R)-2-amino-5-(1-methyl-1H-pyrazol-4-yl)-N-(1-(6-((1,2,2,6,6-pentamethylpiperidin-4-yl)amino)-2-naphthoyl)pyrrolidin-3-yl)nicotinamide] | > 1000 | > 1000 | 
8 | Cc1[nH]c2cc(C(=O)N3CC[C@@H](NC(=O)c4cc(-c5cnn(C)c5)cnc4N)C3)ccc2c1C [Example 698, (R)-2-amino-N-(1-(2,3-dimethyl-1H-indole-6-carbonyl)pyrrolidin-3-yl)-5-(1-methyl-1H-pyrazol-4-yl)nicotinamide] | 100 to 1000 | > 1000 | 
9 | Cn1cc(-c2cnc(N)c(C(=O)N[C@@H]3CCN(C(=O)c4ccc5cc(OCC6CCNCC6)ccc5c4)C3)c2)cn1 [Example 761] |  | > 1000 | 
10 | Cn1cc(-c2cnc(N)c(C(=O)N[C@@H]3CCN(C(=O)c4ccc(-c5ccc(OC6CCNCC6)cc5)cc4)C3)c2)cn1 [Example 531, (R)-2-amino-5-(1-methyl-1H-pyrazol-4-yl)-N-(1-(4′-(piperidin-4-yloxy)-[1,1′-biphenyl]-4-carbonyl)pyrrolidin-3-yl)nicotinamide] |  |  | 10 to 100
11 | Cn1cc(-c2cnc(N)c(C(=O)N[C@@H]3CCN(C(=O)c4cccc(-c5ccc6c(c5)NC(=O)C6=O)c4)C3)c2)cn1 [Example 495, (R)-2-amino-N-(1-(3-(2,3-dioxoindolin-6-yl)benzoyl)pyrrolidin-3-yl)-5-(1-methyl-1H-pyrazol-4-yl)nicotinamide] |  |  | > 1000
12 | Cn1cc(-c2cnc(N)c(C(=O)N[C@@H]3CCN(C(=O)Oc4cccc(-c5ccc(CNCC6CNC6)cc5)c4)C3)c2)cn1 [Example 309, 4′-(((azetidin-3-ylmethyl)amino)methyl)-[1,1′-biphenyl]-3-yl (R)-3-(2-amino-5-(1-methyl-1H-pyrazol-4-yl)nicotinamido)pyrrolidine-1-carboxylate] |  |  | 10 to 100
13 | Cn1cc(-c2cnc(N)c(C(=O)N[C@@H]3CCN(Cc4cc(Cl)cc(Cl)c4O)C3)c2)cn1 [Example 223, (R)-2-amino-N-(1-(3,5-dichloro-2-hydroxybenzyl)pyrrolidin-3-yl)-5-(1-methyl-1H-pyrazol-4-yl)nicotinamide] |  |  | 100 to 1000
14 | CN1CCN(Cc2ccc(-c3cccc(/C=C/C(=O)N4CC[C@@H](NC(=O)c5cc(-c6cnn(C)c6)cnc5N)C4)c3)cc2)CC1 [Example 431, (R,E)-2-amino-5-(1-methyl-1H-pyrazol-4-yl)-N-(1-(3-(4′-((4-methylpiperazin-1-yl)methyl)-[1,1′-biphenyl]-3-yl)acryloyl)pyrrolidin-3-yl)nicotinamide] |  |  | 100 to 1000
15 | Cn1cc(-c2cnc(N)c(C(=O)N[C@@H]3CCN(CC(=O)c4ccccc4)C3)c2)cn1 [Example 215, (R)-2-amino-5-(1-methyl-1H-pyrazol-4-yl)-N-(1-(2-oxo-2-phenylethyl)pyrrolidin-3-yl)nicotinamide] |  |  | > 1000
16 | Nc1ncc(-c2ccc(CO)cc2)cc1C(=O)N[C@@H]1CCN(C(=O)Nc2cc(Cl)cc(Cl)c2)C1 [Example 10, (R)-2-amino-N-(1-((3,5-dichlorophenyl)carbamoyl)pyrrolidin-3-yl)-5-(4-(hydroxymethyl)phenyl)nicotinamide] |  |  | 10 to 100
17 | Cn1cc(-c2cnc(N)c(C(=O)NC3CN(C(=O)c4cccc(-c5ccccc5)c4)C3)c2)cn1 [Example 670, N-(1-([1,1′-biphenyl]-3-carbonyl)azetidin-3-yl)-2-amino-5-(1-methyl-1H-pyrazol-4-yl)nicotinamide] |  |  | > 1000
18 | Cc1n[nH]c(C)c1-c1ccc(C(=O)N2CC[C@@H](NC(=O)c3cc(-c4cnn(C)c4)cnc3N)C2)cc1 [Example 518, (R)-2-amino-N-(1-(4-(3,5-dimethyl-1H-pyrazol-4-yl)benzoyl)pyrrolidin-3-yl)-5-(1-methyl-1H-pyrazol-4-yl)nicotinamide] |  |  | 100 to 1000
19 | Cc1onc(-c2ccccc2)c1C(=O)N1CC[C@@H](NC(=O)c2cc(-c3cnn(C)c3)cnc2N)C1 [Example 500, (R)-2-amino-5-(1-methyl-1H-pyrazol-4-yl)-N-(1-(5-methyl-3-phenylisoxazole-4-carbonyl)pyrrolidin-3-yl)nicotinamide] |  |  | > 1000
20 | Cn1cc(-c2cnc(N)c(C(=O)N[C@@H]3CCN(C(=O)c4ccc(OC5C=CCCC5)cc4)C3)c2)cn1 (stereo partly drawn) [Example 411, 2-amino-N-((3R)-1-(4-(cyclohex-2-en-1-yloxy)benzoyl)pyrrolidin-3-yl)-5-(1-methyl-1H-pyrazol-4-yl)nicotinamide] |  |  | 100 to 1000
21 | Cn1cc(-c2cnc(N)c(C(=O)N[C@@H]3CCN(C(=O)c4ccc(-c5ccc(C#N)s5)cc4)C3)c2)cn1 [Example 537, (R)-2-amino-N-(1-(4-(5-cyanothiophen-2-yl)benzoyl)pyrrolidin-3-yl)-5-(1-methyl-1H-pyrazol-4-yl)nicotinamide] |  |  | 10 to 100
